Test results published in article PMC6283615, “Anilinoquinoline based inhibitors of trypanosomatid proliferation” (PLoS Neglected Tropical Diseases, 2018).
≈ marks a conversion by molar mass, not a printed value. Where two headings read alike, the source gives them in different places.

Assays:
L. major amastigote = assay: L. major intracellular amastigote luciferase assay in RAW 264.7 macrophages; format: cell-based, Leishmania major; settings: intracellular amastigotes in RAW 264.7 macrophages, 96 h
Protocol: Amastigote assays were performed using pLEXSY-hyg2-luciferase L. major transfected promastigotes and the murine RAW 264.7 macrophage cell line (ATCC TIB-71, Manassas, VA). Briefly, luciferase-expressing promastigotes of each Leishmania species were generated by adding a luciferase encoding region to the pLEXSY-hyg2 vector (Jena Biosciences, Germany) as described. One μg of the linearized pLEXSY-hyg2-luciferase vector were electroporated (480 V, 13 Ω, and 500 μF) into 4×10^7 Leishmania promastigotes. Selection for stable promastigote transfectants was carried out using hygromycin B (100 μg/mL). RAW 264.7 macrophages were maintained in growth medium (Dulbecco’s Modified Eagle’s Medium supplemented with heat-inactivated 10% FBS (Life Technologies)). Cells were harvested and resuspended in growth medium at 2.0×10^5 cells/mL, and 1×10^4 cells/well were dispensed (final volume 50 μL) in each well of a 384 well tissue-culture treated white plate using a EVO Freedom liquid handling system (Tecan, Durham, NC). Plates were incubated at 37°C in 5% CO2 for 24 h after which the culture medium was removed from each well using the EVO Freedom liquid handler. Metacyclic phase pLEXSY-hyg2-luciferase-Leishmania promastigotes (MOI = 1:10 L. major) were added to each assay plate well and allowed to infect the RAW 264.7 macrophages. After an overnight incubation, the growth medium was aspirated and each well was washed three times with 40 μL of fresh growth medium to remove non-internalized promastigotes. After the third wash, 69.2 μL of growth medium was added to each well. Compound dilutions (final concentration ranges 0.5–10,000 ng/mL) were generated and dispensed using the liquid handling system. Compound treated plates were incubated at 37°C in 5% CO2 for 96 h. After incubation, 7.5 μL of a luciferin solution (Caliper Life Science, Waltham, MA) diluted to 150 μg/mL was added to each well, and the plates were incubated for 30 min at 37°C in the dark. Data were captured using an Infinite M200 plate reader (Tecan). EC50s were generated for each concentration response test using GraphPad Prism software 6.0.

[1] = test system: T. b. brucei (strain 427); assay: T. b. brucei proliferation assay (PrestoBlue, 48 h); format: cell-based, Trypanosoma brucei brucei; settings: Trypanosoma brucei
Protocol: The assay was performed following a previously reported procedure. Briefly, in a 96-well plate, compounds were added in triplicates at 50 μM and in serial dilutions 1:2 in HMI-9 medium. To each well, 100 μL of 2.5×10^3 T. b. brucei (strain 427, received as a gift from Dr. C. C. Wang at UCSF) in HMI-9 medium was were added and incubated at 37°C, 5% CO2 for 48 h. Following incubation, 20 μL of PrestoBlue were added to each well and incubated for additional 4 h. Fluorescence was read at 530 nm excitation and 590 nm emission.

[2] = test system: T. cruzi amastigote (Tulahuen strain expressing β-galactosidase); assay: Intracellular T. cruzi assay in 3T3 cells (beta-galactosidase, 96 h); format: cell-based, Trypanosoma cruzi; settings: read-out: T. cruzi amastigote EC50
Protocol: In a 96-well plate, 5×10^4 3T3 cells in DMEM without phenol red supplemented with 2% FBS were added to each well. Cells were incubated for 2 h to allow for attachment. Compounds were added in triplicates at 50 μM and in serial dilutions 1:2. To each well, 5×10^4 T. cruzi trypomastigotes (Tulahuen strain expressing β-galactosidase) were added and incubated at 37°C, 5% CO2 for 96 h. Following incubation, 50 μL of 500 μM chlorophenol Red-β-D-galactopyranoside (CPRG) in phosphate-buffered saline with 0.5% NP40 was added to each well and incubated at 37°C, 5% CO2 for 4 h. Absorbance was read at 590–595 nm.

Aqueous solubility = format: physicochemical
[3] = Human plasma protein binding; format: in vitro ADME; settings: for fraction unbound: read-out: Human PPB (converted)
LogD7.4 = format: physicochemical; settings: pH 7.4
[4] = Rat hepatocyte intrinsic clearance; format: in vitro ADME; settings: for hepatocyte CLint: hepatocytes
[5] = Human liver microsome intrinsic clearance; format: in vitro ADME; settings: liver microsomes
[6] = Trypanosoma cruzi, TULAHUEN, NIH3T3, 96 h
[7] = intracellular in 3T3 cells, 96 h

SMILES: CN1CCN(S(=O)(=O)c2ccc(-c3ccc4c(Nc5cnccn5)ccnc4c3)cc2)CC1 [Compound 4]
- EC50 (L. major amastigote; Leishmania major, RAW264.7): 20 µM
- EC50 [1]: 0.91 µM
- EC50 [2, 6]: 16 µM
- solubility (Aqueous solubility): 4.2 µM (≈ 1.93 µg/mL)
- fraction unbound [3]: 0.06
- logD (LogD7.4): 3.2

SMILES: CN1CCN(c2ncc(Nc3ccc4c(Nc5ccc(OCc6cccc(F)c6)c(Cl)c5)ccnc4c3)cn2)CC1 [Compound 18]
- EC50 (L. major amastigote; Leishmania major, RAW264.7): 0.87 µM
- EC50 [1]: 0.16 µM
- EC50 [2, 6]: 2.7 µM

SMILES: CN1CCN(c2ccc(Nc3ccc4c(Nc5cnccn5)ccnc4c3)cc2)CC1 [NEU-2096]
- EC50 (L. major amastigote): 7.9 µM
- Human PPB [3]: 88%
- Rat Hepatocyte CLint [4]: 10 μL/min/10^6 cells
- LogD7.4 (LogD7.4): 2.2

SMILES: COc1cnc(Nc2ccnc3cc(-c4ccc(S(=O)(=O)N5CCN(C)CC5)cc4)ccc23)cn1 [Compound 3]
- EC50 (L. major amastigote; Leishmania major, RAW264.7): 19 µM
- EC50 [1]: 0.62 µM
- EC50 [2, 6]: 9.7 µM
- solubility (Aqueous solubility): 3.2 µM (≈ 1.57 µg/mL)
- fraction unbound [3]: 0.03
- logD (LogD7.4): 4.2

SMILES: Cc1ccc(Nc2ccnc3cc(-c4ccc(S(=O)(=O)N5CCN(C)CC5)cc4)ccc23)cc1Cl [Compound 8]
- EC50 (L. major amastigote; Leishmania major, RAW264.7): 2.4 µM
- EC50 [1]: 0.65 µM
- EC50 [2, 6]: > 50 µM
- microsomal CLint [5]: 290 µL/min/mg

SMILES: Cc1ccc(Nc2ccnc3cc(-c4ccc(S(=O)(=O)N5CCN(C)CC5)cc4)ccc23)cn1 [Compound 11]
- EC50 (L. major amastigote; Leishmania major, RAW264.7): 3.9 µM
- EC50 [1]: 0.69 µM
- EC50 [2, 6]: 9.9 µM
- fraction unbound [3]: 0.08
- microsomal CLint [5]: 400 µL/min/mg
- hepatocyte CLint [4]: 49 µL/min/1e6 cells
- logD (LogD7.4): 3.7

SMILES: CN1CCN(c2ccc(Nc3ccc4c(Nc5ccc(OCc6cccc(F)c6)c(Cl)c5)ccnc4c3)cc2)CC1 [Compound 17]
- EC50 (L. major amastigote; Leishmania major, RAW264.7): 1.2 µM
- EC50 [1]: 0.12 µM
- EC50 [2, 6]: 2.1 µM

SMILES: CN1CCN(S(=O)(=O)c2ccc(-c3ccc4c(Nc5cccc(Cl)c5)ccnc4c3)cc2)CC1 [Compound 7]
- EC50 (L. major amastigote; Leishmania major, RAW264.7): 3.4 µM
- EC50 [1]: > 50 µM
- EC50 [2, 6]: > 50 µM
- fraction unbound [3]: < 0.01
- microsomal CLint [5]: 150 µL/min/mg
- hepatocyte CLint [4]: 15 µL/min/1e6 cells

SMILES: CN1CCN(c2ccnc(Nc3ccc4c(Nc5ccc(OCc6cccc(F)c6)c(Cl)c5)ccnc4c3)n2)CC1 [Compound 19]
- EC50 (L. major amastigote; Leishmania major, RAW264.7): 2.5 µM
- EC50 [1]: 0.12 µM
- EC50 [2, 6]: 2.7 µM
- solubility (Aqueous solubility): 1 µM (≈ 0.57 µg/mL)
- microsomal CLint [5]: 21 µL/min/mg
- hepatocyte CLint [4]: 4.6 µL/min/1e6 cells
- logD (LogD7.4): 4.7

SMILES: CN1CCN(c2ccnc(Nc3ccc4c(Nc5cnccn5)ccnc4c3)n2)CC1 [NEU-2091]
- EC50 [2, 7]: > 20 µM
- Rat Hepatocyte CLint [4]: 9.3 μL/min/10^6 cells
- LogD7.4 (LogD7.4): 2.8

SMILES: CN1CCN(S(=O)(=O)c2ccc(-c3ccc4c(Nc5ccc(Cl)cn5)ccnc4c3)cc2)CC1 [Compound 5]
- EC50 (L. major amastigote; Leishmania major, RAW264.7): 2.1 µM
- EC50 [1]: 0.27 µM
- EC50 [2, 6]: 2.8 µM
- solubility (Aqueous solubility): < 1 µM
- fraction unbound [3]: < 0.01

SMILES: C[C@@H]1[C@H](O)[C@@H](C)/C=C/C=C/C=C/C=C/C=C/C=C/C=C/[C@H](O[C@@H]2O[C@H](C)[C@@H](O)[C@H](N)[C@@H]2O)C[C@@H]2O[C@](O)(C[C@@H](O)C[C@@H](O)[C@H](O)CC[C@@H](O)C[C@@H](O)CC(=O)O[C@H]1C)C[C@H](O)[C@H]2C(=O)O [Amphotericin B, reference compound]
- EC50 (L. major amastigote; Leishmania major, RAW264.7): 0.036 µM
- EC50 [2, 6]: 0.48 µM

SMILES: CN1CCN(c2nccc(Nc3ccc4c(Nc5ccc(OCc6cccc(F)c6)c(Cl)c5)ccnc4c3)n2)CC1 [Compound 20]
- EC50 (L. major amastigote; Leishmania major, RAW264.7): 1.2 µM
- EC50 [1]: 0.098 µM
- EC50 [2, 6]: 4.3 µM

SMILES: CN1CCN(c2nccc(Nc3ccc4c(Nc5cnccn5)ccnc4c3)n2)CC1 [NEU-2094]
- EC50 [2, 7]: > 50 µM
- LogD7.4 (LogD7.4): 2.9

SMILES: COc1ncc(Nc2ccnc3cc(-c4ccc(S(=O)(=O)N5CCN(C)CC5)cc4)ccc23)cn1 [Compound 2]
- EC50 (L. major amastigote; Leishmania major, RAW264.7): 3.1 µM
- EC50 [1]: 2.5 µM
- EC50 [2, 6]: > 50 µM
- solubility (Aqueous solubility): 7.3 µM (≈ 3.58 µg/mL)
- fraction unbound [3]: 0.12
- logD (LogD7.4): 3.1

SMILES: COc1ccc(Nc2ccnc3cc(-c4ccc(S(=O)(=O)N5CCN(C)CC5)cc4)ccc23)cc1 [Compound 9]
- EC50 (L. major amastigote; Leishmania major, RAW264.7): 4.4 µM
- EC50 [1]: 0.52 µM
- EC50 [2, 6]: 1.9 µM
- solubility (Aqueous solubility): 9 µM (≈ 4.4 µg/mL)
- microsomal CLint [5]: 350 µL/min/mg
- hepatocyte CLint [4]: 58 µL/min/1e6 cells
- logD (LogD7.4): 4.2
